Measured values as given in patent US9328085B2, “Heterocyclic compounds and expansion agents for hematopoietic stem cells” (NISSAN CHEMICAL INDUSTRIES, LTD., priority 2009, dated 2016).

Columns and labels:
CD34^+ cells = test: Expansion of CD34+ cells using human cord blood-derived CD34+ cells (Assay Example 1); assay type: cell-based; conditions: 3 μg/mL compound; 100 ng/mL SCF, 7 days; based on the number of CD34^+ cells in the absence of compound
Protocol: (§1) Human cord blood-derived CD34^+ cells were purchased from Lonza and plated on a 24-well plate (Corning) (10000 cells/1 mL/well). As the culture medium, StemSpan SFEM (StemCell Technologies) containing 100 ng/mL SCF (Wako Pure Chemical Industries) was used, and one of Compounds No. 1 to 72 dissolved in dimethyl sulfoxide was added in an amount of 0.1% (v/v) to a final concentration of 1 or 3 μg/mL. As a positive control, TPO (PeproTech) was used at a final concentration of 10 ng/mL.
(§2) After the cells were incubated in liquid culture at 37° C. for 7 days in a CO2 incubator (5% CO2), the number of viable cells was counted by trypan blue assay. The number of CD34^+CD38^− cells was calculated as follows. After the incubation, the cells in the liquid culture was stained with a CD34 antibody (APC, Becton, Dickinson and Company) and a CD38 antibody (PE, Becton, Dickinson and Company), then washed with PBS(−) containing 2% (v/v) FBS and stained with propidium iodide (Sigma-Aldrich Japan) added to a final concentration of 5 μg/mL. The stained cells were analyzed with a BD FACSCANTO™ II flow cytometer (Becton, Dickinson and Company) to determined the proportions of CD34^+ cells and CD34^+CD38^− cells, which was multiplied by the number of viable cells to calculate the numbers of CD34^+ cells and CD34^+CD38^− cells.
(§3) The expansion efficiencies in the presence of 1 or 3 μg/mL of compounds based on the number of CD34^+ cells in the absence of them are shown in Tables 3-1 and 3-2 on a scale of A for expansion efficiencies of 6 or greater, B for expansion efficiencies of at least 4 and less than 6, and C for expansion efficiencies of at least 2 and less than 4. The expansion efficiencies in the presence of 1 or 3 μg/mL of compounds based on the number of CD34^+CD38^− cells in the absence of them are shown in Tables 4-1 and 4-2 on a scale of A for expansion efficiencies of 10 or greater, B for expansion efficiencies of at least 5 and less than 10, and C for expansion efficiencies of at least 3 and less than 5. Further, in Table 3, the compounds with an expansion efficiency twice or more greater than that of TPO are marked with O.

CD34^+CD38^− cells = test: Expansion of CD34+CD38- cells using human cord blood-derived CD34+ cells (Assay Example 1); assay type: cell-based; conditions: for Comparison with TPO: 3 μg/mL compound vs TPO 10 ng/mL, CD34^+CD38^− cells; for Expansion efficiency (CD34^+CD38^− cells): 3 μg/mL compound, 100 ng/mL SCF, 7 days, based on the number of CD34^+CD38^− cells in the absence of compound
Protocol: as §1, §2, §3

HPP-CFC colonies = test: Expansion of HPP-CFU, blood cell colony forming assay (Assay Example 3); assay type: cell-based, human; conditions: cells cultured with 3 μg/mL compound, 500 cells/dish, 12 days; None = 6
Protocol: The effects of Compounds No. 60 and No. 61 of the present invention on hematopoietic progenitor cells were measured by blood cell colony forming assay. The liquid cell cultures obtained in the presence of Compounds No. 60 or No. 61 at a final concentration of 3 μg/mL in the same manner as in Assay Example 1 were poured into 3.5-cm Petri dishes with MethoCult GF H4435 culture medium (StemCell Technologies) at 500 cells/dish and incubated in a CO2 incubator (5% CO2, 37° C.) for 12 days. The number of HPP-CFC colonies in each plate was counted under a microscope routinely. The assay was carried out at least in triplicate, and the numbers of HPP-CFC colonies were averaged.

SRC = test: Transplantation of cell culture into immunodeficient (NOD/SCID) mice, SRC assay (Assay Example 4); assay type: in vivo; conditions: CD34^+ cells cultured 1 week with 3 μg/mL Compound No. 60, SCF and Flt-3, 8 weeks after transplantation, vs uncultured CD34^+ cells, FIG. 2
Protocol: Human cord blood-derived CD34^+ cells were cultured for 1 week in StemSpan SFEM (StemCell Technologies) containing SCF (Peprotech) at a final concentration of 100 ng/mL and Flt-3 (Wako Pure Chemical Industries) at a final concentration of 100 ng/mL in the presence of TPO (Peprotech) at a final concentration of 20 ng/mL or Compound No. 60 at a final concentration of 3 μg/mL in the same manner as in Assay Example 1. The cell culture were transplanted into at least five 7- to 8-week-old NOD/SCID mice by tail vein injection at 4×10^4 cells/mouse in terms of the initial number of CD34^+ cells after a sublethal dose of irradiation (2.5 Gy). Eight weeks after the transplantation, the mice were killed, and the bone marrow cells were collected from both thighbones. Subsequently, the bone marrow cells were stained with a human CD45 antibody (APC, Becton, Dickinson and Company), then washed with PBS(−) containing 2% (v/v) FBS and stained with propidium iodide (Sigma-Aldrich Japan) added to a final concentration of 5 μg/mL. The stained cells were analyzed with a flow cytometry to determined the proportion of human CD45^+ cells in the bone marrow cells. […]

Structure (SMILES) | Expansion efficiency (CD34^+ cells) (CD34^+ cells) | Comparison with TPO (CD34^+CD38^− cells) | Expansion efficiency (CD34^+CD38^− cells) (CD34^+CD38^− cells) | Number of HPP-CFC colonies (HPP-CFC colonies) | SRC expanding effect (proportion of human CD45^+ cells in bone marrow) (SRC)
CC(=NNC(=O)c1ccc(C(=O)NCc2ccc(C(=O)NCCOCCO)cc2)s1)c1csc(-c2ccc(C(C)(C)C)cc2)c1O [Compound No. 60] | B (B for expansion efficiencies of at least 4 and less than 6) | ∘ | A (A for expansion efficiencies of 10 or greater) | 25 | excellent SRC expanding effect
CC(=NNC(=O)c1ccc(C(=O)NCc2ccc(C(=O)NCCOCCO)cc2)s1)c1csc(-c2ccc(Br)cc2)c1O [compound 61] | A (A for expansion efficiencies of 6 or greater) | ∘ | A (A for expansion efficiencies of 10 or greater) | 14 | –
CC(=NNC(=O)c1ccc(C(=O)NCc2ccc(CC(N)=O)cc2)s1)c1csc(-c2ccc(OC(F)(F)F)cc2)c1O [compound 71] | A (A for expansion efficiencies of 6 or greater) | – | A (A for expansion efficiencies of 10 or greater) | – | –
COc1ccc(-c2scc(C(C)=NNC(=O)c3ccc(C(=O)NCc4ccc(CC(N)=O)cc4)s3)c2O)cc1 [compound 72] | B (B for expansion efficiencies of at least 4 and less than 6) | – | B (B for expansion efficiencies of at least 5 and less than 10) | – | –
